Reference: the supplement of paper PMC10307832

Experiments:
Assay in all cases: relative viability (nuclei count vs DMSO), 5 days (fraction); higher = more cells survive
[1] = compound: C1/C(=C\C2=CC=CS2)/C(=O)/C(=C/C3=CC=CS3)/C1
Procedure, shortened: (§1)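 After an overnight hold at 37 °C, lung cancer cell lines in 1536-well plates were pinned with five library-drug doses (not always all listed), each √10 from the next, on vehicle-anchored plates. The cells stayed 5 days without fresh medium, then a one-step fix, permeabilisation and Hoechst stain preceded 4× imaging and MetaXpress nuclear counts. A plate passed only with control CV under 25% and at least one doubling. Viability is the median, over plates, of treated-well nuclei relative to vehicle-well nuclei.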

TPCA-1 = compound: C1=CC(=CC=C1C2=CC(=C(S2)NC(=O)N)C(=O)N)F [TPCA-1]
Procedure, shortened: as §1

Lestaurtinib = compound: C[C@]12O[C@H](C[C@]1(O)CO)n1c3ccccc3c3c4c(c5c6ccccc6n2c5c31)CNC4=O [Lestaurtinib]
Procedure, shortened: as §1

Row | Cell Line | relative viability ([1]; 0.2 µM) | relative viability ([1]; 0.6325 µM) | relative viability ([1]; 2 µM) | relative viability ([1]; 6.325 µM) | relative viability ([1]; 20 µM) | relative viability (TPCA-1; 0.04 µM) | relative viability (TPCA-1; 0.1265 µM) | relative viability (TPCA-1; 0.4 µM) | relative viability (TPCA-1; 1.265 µM) | relative viability (TPCA-1; 4 µM) | relative viability (Lestaurtinib; 0.005 µM) | relative viability (Lestaurtinib; 0.01581 µM) | relative viability (Lestaurtinib; 0.05 µM) | relative viability (Lestaurtinib; 0.1581 µM) | relative viability (Lestaurtinib; 0.5 µM)
1 | SK-LU-1 | 1.12 | 1.09 | 1.07 | 0.91 | 1.1 | 1.13 | 0.9 | 1.07 | 0.836 | 0.632 | 1.07 | 0.883 | 0.531 | 0.563 | 0.263
2 | LOU-NH91 | 1.02 | 0.991 | 1.09 | 0.874 | 1.02 | 1.05 | 0.943 | 0.981 | 0.878 | 0.851 | 0.946 | 1 | 0.865 | 0.65 | 0.423
3 | LXF-289 | 1.03 | 1.03 | 1.02 | 0.902 | 0.991 | 1 | 0.934 | 0.954 | 0.953 | 0.69 | 0.963 | 1.02 | 0.93 | 0.901 | 0.315
4 | NCI-H1299 | 0.993 | 1.04 | 0.963 | 0.859 | 0.997 | 1.03 | 0.977 | 0.991 | 1.01 | 1.07 | 1.03 | 1.02 | 0.762 | 0.799 | 0.727
5 | HARA | 1.11 | 0.94 | 1.03 | 0.853 | 0.945 | 1.05 | 0.996 | 1.06 | 1.14 | 0.476 | 1.09 | 1.22 | 1.08 | 0.619 | 0.499
6 | LU99A | 1 | 0.966 | 1.02 | 0.788 | 0.892 | 1.1 | 0.909 | 0.989 | 0.919 | 0.437 | 0.892 | 0.893 | 0.625 | 0.489 | 0.251
7 | 201T | 1.01 | 0.963 | 1.06 | 0.935 | 0.935 | 1.02 | 0.951 | 1 | 1.01 | 0.835 | 1.04 | 1.08 | 0.928 | 1.04 | 0.678
8 | HCC-827 | 1.05 | 1.04 | 1.05 | 0.956 | 1.04 | 1.12 | 0.988 | 1.05 | 0.961 | 0.813 | 1.01 | 1.07 | 1.03 | 0.892 | 0.664
9 | NCI-H1666 | 1.02 | 1.02 | 0.922 | 0.919 | 0.955 | 1.09 | 0.972 | 0.982 | 0.973 | 0.904 | 1.11 | 1.13 | 1.31 | 0.986 | 0.894
10 | NCI-H1915 | 1.02 | 1.04 | 0.99 | 0.93 | 0.97 | 1.1 | 0.984 | 1.05 | 0.896 | 0.608 | 1.01 | 1.05 | 0.927 | 0.642 | 0.344
11 | NCI-H2009 | 1.03 | 0.98 | 0.972 | 0.936 | 0.994 | 1.12 | 1 | 1.01 | 0.859 | 0.834 | 0.999 | 1.04 | 0.82 | 0.762 | 0.366
12 | ChaGo-K-1 | 0.997 | 1.02 | 1.02 | 0.787 | 0.535 | 1.09 | 0.927 | 0.965 | 0.925 | 0.637 | 1 | 1.08 | 0.906 | 1.01 | 0.437
13 | COR-L 105 | 0.989 | 0.895 | 0.956 | 0.71 | 0.836 | 1 | 0.9 | 0.99 | 0.806 | 0.615 | 0.897 | 0.978 | 0.808 | 0.572 | 0.313
14 | NCI-H2170 | 1 | 0.942 | 0.991 | 0.881 | 0.924 | 1.19 | 0.959 | 0.98 | 0.895 | 0.674 | 0.959 | 0.832 | 0.689 | 0.807 | 0.494
15 | A549 | 0.987 | 0.983 | 1.01 | 0.772 | 0.931 | 1.05 | 0.956 | 0.955 | 0.871 | 0.782 | 1.04 | 1 | 0.791 | 0.521 | 0.162
16 | SW 1573 | 1.05 | 0.996 | 1.08 | 0.891 | 0.99 | 1.18 | 0.91 | 0.985 | 0.947 | 0.858 | 1.05 | 0.989 | 0.782 | 0.571 | 0.401
17 | NCI-H1975 | 0.99 | 0.891 | 0.886 | 0.838 | 0.969 | 0.974 | 0.887 | 0.932 | 0.87 | 0.576 | 1.04 | 1.03 | 0.829 | 0.774 | 0.649
18 | Calu-6 | 1.06 | 1.05 | 0.993 | 0.944 | 0.985 | 1.06 | 0.95 | 0.982 | 1 | 0.72 | 1.05 | 0.999 | 0.621 | 0.518 | 0.204
19 | NCI-H1648 | 0.934 | 0.875 | 0.876 | 0.728 | 0.739 | 1.1 | 0.788 | 1.03 | 0.824 | 0.993 | 0.688 | 0.993 | 0.691 | 1.17 | 0.879
